7 molecules from US8188272B2, “Fused heterocyclic compounds useful as kinase modulators” (Bristol-Myers Squibb Company, priority 2007, dated 2012) can be followed below.

The subject of test [1] is Ramos RA1 B cells. As to the kind of experiment: Ramos FLIPR Assay (intracellular calcium). Format: cell-based. The conditions noted are these: Homo sapiens; Ramos RA1 B cells stimulated with F(ab')2 anti-IgM/IgG, peak intracellular calcium; read-out: Human Ramos Cell FLIPR (IC50 uM). The method, then:
Ramos RA1 B cells (ATCC CRL-1596) at a density of 2×10^6 cells/ml in RPMI minus phenol red (Invitrogen 11835-030) and 50 mM HEPES (Invitrogen 15630-130) containing 0.1% BSA (Sigma A8577) were added to one half volume of calcium loading buffer (BD bulk kit for probenecid sensitive assays, # 640177) and incubated at room temperature in the dark for 1 hour. Dye-loaded cells were pelleted (Beckmann GS-CKR, 1200 rpm, RT, 5 minutes) and resuspended in RT RPMI minus phenol red with 50 mM HEPES and 10% FBS to a density of 1×10^6 cells/ml. 150 μl aliquots (150,000/well) were plated into 96 well poly-D-lysine coated assay plates (BD 35 4640) and briefly centrifuged (Beckmann GS-CKR 800 rpm, 5 minutes, without brake). 50 μl compound dilutions in 0.4% DMSO/RPMI minus phenol red+50 mM HEPES+10% FBS were added to the wells and the plate was incubated at RT in the dark for 1 hour. Assay plate was briefly centrifuged as above prior to measuring calcium levels.
Using the FLIPR1 (Molecular devices), cells were stimulated by adding 50 μl 200 μg/ml F(ab′)2 anti-IgM/IgG (Jackson ImmunoResearch 109-006-127) diluted in 1X HBSS (Invitrogen 14025-076), 50 mM HEPES, 0.1% BSA. Changes in intracellular calcium concentrations were measured for 180 seconds and percent inhibition was determined relative to peak calcium levels seen in the presence of F(ab′)2 anti-IgM/IgG only.

The target in test [2] is T1, human recombinant Btk (Homo sapiens, UniProt Q06187).
T1 construct: purchased Invitrogen Corporation
As to the kind of experiment: Human Recombinant Btk Enzyme Assay. Format: biochemical. The conditions noted are these: human recombinant Btk 1 nM, ATP 20 μM, 60 min room temperature, Caliper LabChip. How it is done:
Human Recombinant Btk Enzyme Assay
To V-bottom 384-well plates were added test compounds, human recombinant Btk (1 nM, Invitrogen Corporation), fluoresceinated peptide (1.5 μM), ATP (20 μM), and assay buffer (20 mM HEPES pH 7.4, 10 mM MgCl2, 0.015% Brij35 and 4 mM DTT in 1.6% DMSO), with a final volume of 30 μL. After incubating at room temperature for 60 min, the reaction was terminated by adding 45 μl of 35 mM EDTA to each sample. The reaction mixture was analyzed on the Caliper LabChip 3000 (Caliper, Hopkinton, Mass.) by electrophoretic separation of the fluorescent substrate and phosphorylated product. Inhibition data were calculated by comparison to no enzyme control reactions for 100% inhibition and no inhibitor controls for 0% inhibition. Dose response curves were generated to determine the concentration required inhibiting 50% of kinase activity (IC50). Compounds were dissolved at 10 mM in dimethylsulfoxide (DMSO) and evaluated at eleven concentrations.
Using this assay, the following IC50 values derived by non-linear regression analysis were determined and compared to those values of certain compounds in US 2007/0078136 and US 2008/0045536.

The test system of test [3] is Mouse splenic B cells. As to the kind of experiment: Mouse Splenic B Cell Proliferation Assay. Format: cell-based. The conditions noted are these: Balb/c splenic B cells stimulated with anti-mouse IgG IgM F(ab')2 10 μg/ml, 72 hours, 3[H]-thymidine. The method, then: Mouse Splenic B Cell Proliferation Assay
Spleens from Balb/c mice (<12 weeks old) were mashed through screens and red blood cells were removed from splenocytes with RBC lysing buffer (Sigma-Aldrich Chemical Co, —St. Louis, Mo.). T cells were depleted by incubation on nylon wool columns (Wako, Richmond, Va.). Resulting splenic B cells prepared this way were routinely >90% CD19^+ as measured by FACS analysis. B cells (1×10^5 cells per well) were added to serial dilutions of compounds in triplicate in 96-well flat-bottom plates in RPMI 1640 (Invitrogen, Grand Island, N.Y.), supplemented with 10% heat-inactivated fetal calf serum (FCS, Summit Biotechnology, Fort Collins, Colo.), containing 1% L-glutamine (Invitrogen), […] gentamicin (Invitrogen) and 5×10^−5M β-mercaptoethanol (Sigma-Aldrich). Cells were stimulated with 10 μg/ml of Affinipure F(ab′)2 fragment goat anti-mouse IgG IgM (Jackson Immunoresearch, West Grove, Pa.). Cultures were incubated for 72 hours, and pulsed for the last 6 hours with one μCi/well of ^3[H]-thymidine (PerkinElmer, Boston, Mass.) prior to harvest on a Packard cell harvester (PerkinElmer), and counted by liquid scintillation on a Packard TopCount NXT (PerkinElmer).

Test [4] relates to Human tonsillar B cells. In words: Human Tonsillar B Cell Proliferation Assay. The note with it: tonsillar B cells stimulated with anti Human IgG+IgM F(ab')2 40 μg/ml, 72 hours, 3[H]-thymidine. Format: cell-based. The source says: Human Tonsillar B Cell Proliferation Assay
Tonsils were excised from patients undergoing routine tonsillectomy. Tonsil tissue was minced, mashed through screens and mononuclear cells were isolated on ficoll density gradients (Lymphocyte Separation Media; Mediatech Inc., Herndon, Va.). T cells were depleted from mononuclear cells by rosetting with sheep red blood cells (SRBC, Colorado Serum Company; Denver, Colo.). Tonsillar B cells prepared by this method were routinely >95% CD19^+ as measured by FACS analysis. B cells (1×10^5 cells per well) were added to serial dilutions of compounds in triplicate in 96-well flat-bottom plates in RPMI 1640, (Invitrogen, Grand Island, N.Y.), supplemented with 10% heat-inactivated fetal calf serum (FCS, Summit Biotechnology, Fort Collins, Colo.), and containing antibiotic/antimycotic (Invitrogen, 1:100 dilution) and gentamicin (Invitrogen, 5 μg/ml). Cells were stimulated with 40 μg/ml AffinPure F(ab′)2 Fragment Goat anti Human IgG+IgM (Jackson Immunoresearch, West Grove, Pa.) in a total volume of 0.2 ml. Cultures were incubated for 72 hours, and pulsed for the last 6 hours with one μCi/well of ^3[H]-thymidine (PerkinElmer, Boston, Mass.) prior to harvest on a Packard cell harvester (PerkinElmer), and counted by liquid scintillation on a Packard TopCount NXT (PerkinElmer).

Each structure is given as a SMILES string.

T1 sequence (Q06187 whole entry): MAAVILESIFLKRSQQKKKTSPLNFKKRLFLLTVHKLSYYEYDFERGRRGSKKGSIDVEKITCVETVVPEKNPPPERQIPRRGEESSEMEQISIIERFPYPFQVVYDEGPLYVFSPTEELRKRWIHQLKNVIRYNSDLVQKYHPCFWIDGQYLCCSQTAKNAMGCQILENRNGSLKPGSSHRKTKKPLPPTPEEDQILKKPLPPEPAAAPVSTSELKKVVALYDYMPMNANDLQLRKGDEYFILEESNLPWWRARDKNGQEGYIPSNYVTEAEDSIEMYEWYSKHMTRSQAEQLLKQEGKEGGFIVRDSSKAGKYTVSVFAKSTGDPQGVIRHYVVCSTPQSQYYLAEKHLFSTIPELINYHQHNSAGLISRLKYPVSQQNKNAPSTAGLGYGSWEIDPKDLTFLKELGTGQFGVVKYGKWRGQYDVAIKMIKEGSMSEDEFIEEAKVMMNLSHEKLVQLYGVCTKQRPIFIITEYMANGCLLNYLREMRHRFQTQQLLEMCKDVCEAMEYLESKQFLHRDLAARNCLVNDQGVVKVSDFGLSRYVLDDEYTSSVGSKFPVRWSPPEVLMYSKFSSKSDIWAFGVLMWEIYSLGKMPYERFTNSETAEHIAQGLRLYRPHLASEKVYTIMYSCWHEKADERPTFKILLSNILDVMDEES

Regarding `CC(C)(C)c1ccc(C(=O)N[C@@H]2CCCN(c3nc(Nc4ccc(C(=O)N5CCOCC5)cc4)c4nccn4n3)C2)cc1` [Example 1, (R)-4-tert-Butyl-N-(1-(4-(4-(morpholine-4-carbonyl)phenylamino)imidazo[1,2-f][1,2,4]triazin-2-yl)piperidin-3-yl)benzamide], the IC50 in test [1] came out at 0.26 µM.
Regarding `CC(C)(C)c1ccc(C(=O)N[C@H]2CCCN(c3nc(Nc4ccc(C(=O)N5CCOCC5)cc4)c4nccn4n3)C2)cc1` [Example 2, (S)-4-tert-Butyl-N-(1-(4-(4-(morpholine-4-carbonyl)phenylamino)imidazo[1,2-f][1,2,4]triazin-2-yl)piperidin-3-yl)benzamide], the results for the IC50 in test [2] and in test [1] were 0.8 µM and 4.08 µM, respectively.
`CC(C)(C)c1ccc(C(=O)N[C@@H]2CCCN(c3nc(Nc4ccc(C(=O)N[C@@H]5CCNC5)cc4)c4nccn4n3)C2)cc1` [Example 9, 4-tert-Butyl-N—((R)-1-(4-(4-((S)-pyrrolidin-3-ylcarbamoyl)phenylamino)imidazo[1,2-f][1,2,4]triazin-2-yl)piperidin-3-yl)benzamide]: the 50% inhibitory concentration (IC50) in test [3] was determined as 1.29 µM; in test [4], 1.91 µM.
In the case of `CC(C)(C)c1ccc(C(=O)N[C@@H]2CCCN(c3nc(Nc4ccc(C(=O)N5CCNCC5)cc4)c4nccn4n3)C2)cc1` [Example 11, (R)-4-tert-Butyl-N-(1-(4-(4-(piperazine-1-carbonyl)phenylamino)imidazo[1,2-f][1,2,4]triazin-2-yl)piperidin-3-yl)benzamide], the 50% inhibitory concentration (IC50) is 0.013 µM in test [2] and 0.028 µM in test [1].
Regarding `CC(C)(C)c1ccc(C(=O)N[C@@H]2CCCN(c3nc(Nc4ccc(C(=O)N5CCOCC5)cc4)c4ncc(N)n4n3)C2)cc1` [Example 26, (R)—N-(1-(7-Amino-4-(4-(morpholine-4-carbonyl)phenylamino)imidazo[1,2-f][1,2,4]triazin-2-yl)piperidin-3-yl)-4-tert-butylbenzamide], the half-inhibitory concentration (IC50) in test [3] was 0.08 µM; in test [1], 0.015 µM.
As to `NCc1cnc2c(Nc3ccc(C(=O)N4CCOCC4)cc3)nc(N3CCC[C@@H](NC(=O)c4cc5ccccc5[nH]4)C3)nn12` [Example 35, (R)—N-(1-(7-(Aminomethyl)-4-(4-(morpholine-4-carbonyl)phenylamino)imidazo[1,2-f][1,2,4]triazin-2-yl)piperidin-3-yl)-1H-indole-2-carboxamide], in test [1], the IC50 stood at 1.24 µM.
In turn, `O=C(N[C@@H]1CCCN(c2nc(Nc3ccc(C(=O)N4CCOCC4)cc3)c3nccn3n2)C1)c1ccccc1` [Example 36, (R)—N-(1-(4-(4-(morpholine-4-carbonyl)phenylamino)imidazo[1,2-f][1,2,4]triazin-2-yl)piperidin-3-yl)benzamide] came in with a half-inhibitory concentration (IC50) in test [4] of 0.45 µM.
